Counter-ions that a name gives are not always drawn. The source made the active and inactive calls.
Legend:
[1] = target: Luciferin 4-monooxygenase (Photinus pyralis, UniProt P08659); assay: Counter Screen for Luciferase-based Assay Positives. [Related pubchem assays: 620, 618, 411 ]
[2] = target: T1, Short transient receptor potential channel 4 (Mus musculus, UniProt Q9QUQ5); assay: block of DAMGO-driven TRPC4 calcium entry – cell-based, HEK293 TRPC4/mu-opioid, Fluo-4 calcium, dose response (AID 434942); format: functional;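 note: potency of inhibitors blocking the TRPC4 calcium response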
T1 sequence (Q9QUQ5 whole entry): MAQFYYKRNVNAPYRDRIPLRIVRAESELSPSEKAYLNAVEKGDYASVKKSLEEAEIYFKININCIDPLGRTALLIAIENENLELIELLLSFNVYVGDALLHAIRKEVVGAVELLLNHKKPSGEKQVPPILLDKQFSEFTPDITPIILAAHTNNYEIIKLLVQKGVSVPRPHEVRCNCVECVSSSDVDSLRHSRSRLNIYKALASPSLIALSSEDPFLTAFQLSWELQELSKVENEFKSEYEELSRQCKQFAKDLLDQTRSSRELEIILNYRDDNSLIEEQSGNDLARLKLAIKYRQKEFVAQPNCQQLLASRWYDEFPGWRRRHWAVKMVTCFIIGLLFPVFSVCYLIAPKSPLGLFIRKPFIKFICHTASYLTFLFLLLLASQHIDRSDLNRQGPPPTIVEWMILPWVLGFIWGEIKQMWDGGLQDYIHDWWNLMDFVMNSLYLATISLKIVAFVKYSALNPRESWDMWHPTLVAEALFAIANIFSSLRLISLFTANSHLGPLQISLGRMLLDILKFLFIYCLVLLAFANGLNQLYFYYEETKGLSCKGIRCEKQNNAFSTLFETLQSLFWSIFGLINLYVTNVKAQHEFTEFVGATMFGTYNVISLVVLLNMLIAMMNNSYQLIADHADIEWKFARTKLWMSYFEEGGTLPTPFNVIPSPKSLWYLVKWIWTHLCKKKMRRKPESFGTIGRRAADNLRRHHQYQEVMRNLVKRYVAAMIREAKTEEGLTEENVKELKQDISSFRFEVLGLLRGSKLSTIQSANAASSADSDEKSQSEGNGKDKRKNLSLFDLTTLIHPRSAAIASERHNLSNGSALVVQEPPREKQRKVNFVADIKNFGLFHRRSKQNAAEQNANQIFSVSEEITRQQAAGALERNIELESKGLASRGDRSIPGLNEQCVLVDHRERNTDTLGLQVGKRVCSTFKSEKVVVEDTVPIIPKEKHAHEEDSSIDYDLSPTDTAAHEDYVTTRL

[3] = target: T2, Neuropeptide Y receptor type 2 (Homo sapiens, UniProt P49146); format: functional, cell-based;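 note: HEK293 cells expressing the receptor and a CNG channel; stimulus was NPY near EC95 followed by isoproterenol to raise cAMP; antagonist potency measured as restoring cAMP signal that NPY suppresses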
T2 sequence (P49146 whole entry): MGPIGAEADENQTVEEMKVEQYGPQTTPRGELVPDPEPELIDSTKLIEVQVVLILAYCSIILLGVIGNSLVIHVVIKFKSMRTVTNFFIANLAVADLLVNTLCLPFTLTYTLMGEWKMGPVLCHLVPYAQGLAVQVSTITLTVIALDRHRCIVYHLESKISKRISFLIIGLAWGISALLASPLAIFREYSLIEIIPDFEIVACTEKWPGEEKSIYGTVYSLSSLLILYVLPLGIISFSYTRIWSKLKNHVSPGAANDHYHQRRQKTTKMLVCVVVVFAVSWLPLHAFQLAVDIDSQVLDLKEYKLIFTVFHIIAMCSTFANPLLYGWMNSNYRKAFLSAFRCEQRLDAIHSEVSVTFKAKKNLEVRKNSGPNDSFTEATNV

[4] = target: T3, Neuropeptide Y receptor type 1 (Homo sapiens, UniProt P25929); format: functional;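 note: HEK293 cells with a CNG channel challenged with NPY then isoproterenol; potency as antagonist that reverses NPY suppression of cAMP signal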
T3 sequence (P25929 whole entry): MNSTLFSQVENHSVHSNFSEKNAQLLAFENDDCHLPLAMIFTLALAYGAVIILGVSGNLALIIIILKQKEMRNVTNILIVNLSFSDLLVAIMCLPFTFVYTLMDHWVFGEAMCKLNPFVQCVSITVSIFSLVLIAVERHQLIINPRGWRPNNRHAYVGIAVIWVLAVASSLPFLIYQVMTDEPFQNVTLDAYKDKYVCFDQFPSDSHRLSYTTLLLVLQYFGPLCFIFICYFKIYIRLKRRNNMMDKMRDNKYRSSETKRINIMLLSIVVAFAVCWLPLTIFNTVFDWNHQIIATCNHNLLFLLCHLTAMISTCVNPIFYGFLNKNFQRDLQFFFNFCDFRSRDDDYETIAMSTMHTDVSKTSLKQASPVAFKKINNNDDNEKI

Procathepsin L = Procathepsin L (Homo sapiens, UniProt P07711)
Chain of Procathepsin L (P07711 whole entry): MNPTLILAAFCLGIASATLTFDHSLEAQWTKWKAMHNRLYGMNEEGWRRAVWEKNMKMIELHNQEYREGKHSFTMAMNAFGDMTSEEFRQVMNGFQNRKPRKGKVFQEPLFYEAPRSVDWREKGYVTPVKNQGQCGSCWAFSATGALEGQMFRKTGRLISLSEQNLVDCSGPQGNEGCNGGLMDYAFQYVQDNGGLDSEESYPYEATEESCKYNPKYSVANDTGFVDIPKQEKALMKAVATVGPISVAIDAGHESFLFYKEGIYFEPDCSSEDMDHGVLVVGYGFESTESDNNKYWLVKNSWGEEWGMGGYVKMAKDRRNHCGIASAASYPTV

Aspartyl aminopeptidase = target: T4, Aspartyl aminopeptidase (Plasmodium falciparum 3D7, UniProt Q8I2J3)
T4 sequence (Q8I2J3 whole entry): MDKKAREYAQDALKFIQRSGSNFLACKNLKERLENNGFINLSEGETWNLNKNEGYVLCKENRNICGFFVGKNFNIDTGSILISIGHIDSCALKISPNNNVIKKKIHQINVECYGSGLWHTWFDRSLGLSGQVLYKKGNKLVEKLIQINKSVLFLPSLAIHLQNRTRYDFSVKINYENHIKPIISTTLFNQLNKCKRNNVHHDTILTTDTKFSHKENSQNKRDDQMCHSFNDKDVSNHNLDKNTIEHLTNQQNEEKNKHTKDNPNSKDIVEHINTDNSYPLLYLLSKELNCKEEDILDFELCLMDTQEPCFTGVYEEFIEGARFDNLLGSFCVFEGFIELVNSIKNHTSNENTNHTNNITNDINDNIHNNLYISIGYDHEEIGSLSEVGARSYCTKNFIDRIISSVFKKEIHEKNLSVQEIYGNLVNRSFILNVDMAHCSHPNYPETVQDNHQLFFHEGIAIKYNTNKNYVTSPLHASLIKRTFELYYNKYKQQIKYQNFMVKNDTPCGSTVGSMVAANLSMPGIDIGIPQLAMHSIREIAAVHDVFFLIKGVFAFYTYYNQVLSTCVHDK

[5] = target: Lysosomal acid glucosylceramidase (Homo sapiens, UniProt P04062); assay: Dose response cell-based high throughput screening assay to identify enhancers of beta-glucosidase activity. [Related pubchem assays: 784 ]; format: functional
[6] = target: Glyceraldehyde-3-phosphate dehydrogenase (Homo sapiens, UniProt P04406)
Chain of Glyceraldehyde-3-phosphate dehydrogenase (P04406 whole entry): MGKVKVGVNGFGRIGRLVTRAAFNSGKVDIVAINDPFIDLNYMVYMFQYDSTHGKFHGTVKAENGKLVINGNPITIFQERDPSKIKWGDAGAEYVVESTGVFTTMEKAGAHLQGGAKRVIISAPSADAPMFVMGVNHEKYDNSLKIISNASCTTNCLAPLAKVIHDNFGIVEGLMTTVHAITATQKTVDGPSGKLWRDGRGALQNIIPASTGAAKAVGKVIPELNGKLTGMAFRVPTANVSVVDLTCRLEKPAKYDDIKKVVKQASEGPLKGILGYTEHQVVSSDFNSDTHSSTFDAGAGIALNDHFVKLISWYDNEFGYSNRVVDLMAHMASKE

HT-1080 = assay: HT1080 cell viability loss – fluorescence readout (AID 620); format: functional, cell-based; conditions: Homo sapiens
Mucolipin-3 = target: T5, Mucolipin-3 (Homo sapiens, UniProt Q8TDD5); assay: Dose response cell-based high-throughput screening assay for agonists of the transient receptor potential channel ML3 (TRPML3). [Related pubchem assays: 1526, 1424, 1448 ]; format: functional
T5 sequence (Q8TDD5 whole entry): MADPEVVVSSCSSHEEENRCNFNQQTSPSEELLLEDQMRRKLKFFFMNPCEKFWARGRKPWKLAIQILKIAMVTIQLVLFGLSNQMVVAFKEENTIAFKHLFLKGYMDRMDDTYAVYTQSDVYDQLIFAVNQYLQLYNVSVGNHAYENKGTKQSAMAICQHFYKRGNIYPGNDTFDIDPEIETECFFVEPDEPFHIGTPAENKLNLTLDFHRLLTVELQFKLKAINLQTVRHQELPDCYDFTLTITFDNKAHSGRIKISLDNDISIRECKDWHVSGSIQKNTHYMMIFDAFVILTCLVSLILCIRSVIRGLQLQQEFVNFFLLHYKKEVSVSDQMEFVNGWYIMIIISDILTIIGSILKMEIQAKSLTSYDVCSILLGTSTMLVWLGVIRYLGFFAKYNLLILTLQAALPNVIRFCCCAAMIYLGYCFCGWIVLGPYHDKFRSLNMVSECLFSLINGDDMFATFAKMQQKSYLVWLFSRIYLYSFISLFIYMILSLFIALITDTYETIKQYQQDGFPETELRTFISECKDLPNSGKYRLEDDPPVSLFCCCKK

Ion channel NompC = Ion channel NompC (Danio rerio, UniProt Q7T1G6); assay: Fluorescence counterscreen assay for TRPML3 agonists: dose response cell-based high-throughput screening assay to identify agonists of the transient receptor potential channel N1 (TRPN1). [Related pubchem assays: 1526, 1424, 1448 ]; format: functional
Chain of Ion channel NompC (Q7T1G6 whole entry): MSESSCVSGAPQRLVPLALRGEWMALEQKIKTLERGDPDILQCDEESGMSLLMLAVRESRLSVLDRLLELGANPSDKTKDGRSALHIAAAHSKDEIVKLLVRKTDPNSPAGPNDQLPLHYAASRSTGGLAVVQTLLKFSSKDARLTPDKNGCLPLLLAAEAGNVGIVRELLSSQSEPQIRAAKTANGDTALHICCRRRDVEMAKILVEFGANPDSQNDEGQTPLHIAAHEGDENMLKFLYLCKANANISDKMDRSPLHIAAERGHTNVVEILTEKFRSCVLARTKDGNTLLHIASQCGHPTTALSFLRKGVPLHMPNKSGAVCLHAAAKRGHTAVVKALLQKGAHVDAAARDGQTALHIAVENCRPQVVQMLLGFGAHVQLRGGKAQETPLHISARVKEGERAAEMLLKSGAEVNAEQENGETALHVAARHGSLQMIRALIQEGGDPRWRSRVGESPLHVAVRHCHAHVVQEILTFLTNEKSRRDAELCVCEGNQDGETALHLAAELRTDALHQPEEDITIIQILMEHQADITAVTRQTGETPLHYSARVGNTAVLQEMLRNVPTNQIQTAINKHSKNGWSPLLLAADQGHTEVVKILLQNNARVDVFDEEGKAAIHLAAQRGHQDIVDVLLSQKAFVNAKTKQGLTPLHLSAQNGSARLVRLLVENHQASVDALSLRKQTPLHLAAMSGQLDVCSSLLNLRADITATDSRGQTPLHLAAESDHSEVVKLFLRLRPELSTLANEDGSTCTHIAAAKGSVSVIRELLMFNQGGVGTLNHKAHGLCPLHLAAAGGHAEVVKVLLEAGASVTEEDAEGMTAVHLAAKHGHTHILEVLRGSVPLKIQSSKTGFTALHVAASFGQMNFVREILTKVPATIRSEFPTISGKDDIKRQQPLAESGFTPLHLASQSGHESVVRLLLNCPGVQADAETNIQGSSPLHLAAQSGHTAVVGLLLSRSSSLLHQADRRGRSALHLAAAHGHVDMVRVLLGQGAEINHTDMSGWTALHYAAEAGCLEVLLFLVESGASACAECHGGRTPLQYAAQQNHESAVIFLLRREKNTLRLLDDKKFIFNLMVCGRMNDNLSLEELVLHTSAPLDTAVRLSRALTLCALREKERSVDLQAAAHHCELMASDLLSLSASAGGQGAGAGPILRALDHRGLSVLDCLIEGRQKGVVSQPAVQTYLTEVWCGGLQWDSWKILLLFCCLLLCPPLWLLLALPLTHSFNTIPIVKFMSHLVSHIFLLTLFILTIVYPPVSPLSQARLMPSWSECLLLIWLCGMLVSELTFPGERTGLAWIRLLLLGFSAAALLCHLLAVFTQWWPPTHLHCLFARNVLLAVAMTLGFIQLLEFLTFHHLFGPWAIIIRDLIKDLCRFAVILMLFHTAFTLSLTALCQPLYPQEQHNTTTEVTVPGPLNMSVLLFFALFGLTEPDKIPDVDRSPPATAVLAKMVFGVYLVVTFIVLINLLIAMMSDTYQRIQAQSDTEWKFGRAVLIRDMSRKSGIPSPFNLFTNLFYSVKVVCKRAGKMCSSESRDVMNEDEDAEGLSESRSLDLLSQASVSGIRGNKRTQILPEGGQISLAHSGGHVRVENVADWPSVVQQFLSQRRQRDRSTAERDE

[7] = target: Voltage-gated inwardly rectifying potassium channel KCNH2 (Homo sapiens, UniProt Q12809); conditions: Potency;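 note: confirmatory quantitative high-throughput screen measuring inhibition of hERG channel activity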
Chain of Voltage-gated inwardly rectifying potassium channel KCNH2 (Q12809 whole entry): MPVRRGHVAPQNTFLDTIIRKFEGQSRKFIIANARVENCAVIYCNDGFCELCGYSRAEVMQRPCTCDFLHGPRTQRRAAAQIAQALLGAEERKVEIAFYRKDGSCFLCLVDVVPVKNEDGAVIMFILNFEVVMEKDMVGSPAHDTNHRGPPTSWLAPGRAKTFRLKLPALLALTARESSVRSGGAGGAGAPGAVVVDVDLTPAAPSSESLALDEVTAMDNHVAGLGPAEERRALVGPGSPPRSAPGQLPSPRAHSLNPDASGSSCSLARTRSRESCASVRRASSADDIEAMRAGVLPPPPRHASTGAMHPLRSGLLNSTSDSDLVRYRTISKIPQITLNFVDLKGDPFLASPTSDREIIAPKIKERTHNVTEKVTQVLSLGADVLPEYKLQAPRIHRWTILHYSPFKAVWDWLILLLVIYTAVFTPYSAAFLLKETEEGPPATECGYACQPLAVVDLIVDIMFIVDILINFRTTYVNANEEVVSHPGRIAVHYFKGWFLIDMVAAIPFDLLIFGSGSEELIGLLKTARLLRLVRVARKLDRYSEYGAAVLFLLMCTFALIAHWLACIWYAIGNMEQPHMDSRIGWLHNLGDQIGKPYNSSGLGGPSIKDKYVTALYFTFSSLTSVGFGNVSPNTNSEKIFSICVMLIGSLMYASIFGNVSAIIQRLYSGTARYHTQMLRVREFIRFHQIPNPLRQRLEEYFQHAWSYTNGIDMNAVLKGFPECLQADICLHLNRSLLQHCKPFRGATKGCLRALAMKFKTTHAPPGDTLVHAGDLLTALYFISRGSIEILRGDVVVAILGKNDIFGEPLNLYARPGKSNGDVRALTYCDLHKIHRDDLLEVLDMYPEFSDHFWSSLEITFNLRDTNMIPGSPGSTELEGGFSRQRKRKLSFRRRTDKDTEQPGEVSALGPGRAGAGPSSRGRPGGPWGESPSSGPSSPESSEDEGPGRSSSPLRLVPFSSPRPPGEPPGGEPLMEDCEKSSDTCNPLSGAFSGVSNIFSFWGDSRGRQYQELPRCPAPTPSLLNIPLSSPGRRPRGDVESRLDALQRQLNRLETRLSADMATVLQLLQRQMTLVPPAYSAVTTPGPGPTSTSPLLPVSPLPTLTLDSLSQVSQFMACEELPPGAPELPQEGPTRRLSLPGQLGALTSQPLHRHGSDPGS

[8] = target: T6, Rac GTPase-activating protein 1 (Homo sapiens, UniProt Q9H0H5); assay: blockers of MgcRacGAP-driven Rac1 GTP hydrolysis – biochemical, ADP Hunter fluorescence, primary and confirmatory, confirmation (AID 624330); format: functional
T6 sequence (Q9H0H5 whole entry): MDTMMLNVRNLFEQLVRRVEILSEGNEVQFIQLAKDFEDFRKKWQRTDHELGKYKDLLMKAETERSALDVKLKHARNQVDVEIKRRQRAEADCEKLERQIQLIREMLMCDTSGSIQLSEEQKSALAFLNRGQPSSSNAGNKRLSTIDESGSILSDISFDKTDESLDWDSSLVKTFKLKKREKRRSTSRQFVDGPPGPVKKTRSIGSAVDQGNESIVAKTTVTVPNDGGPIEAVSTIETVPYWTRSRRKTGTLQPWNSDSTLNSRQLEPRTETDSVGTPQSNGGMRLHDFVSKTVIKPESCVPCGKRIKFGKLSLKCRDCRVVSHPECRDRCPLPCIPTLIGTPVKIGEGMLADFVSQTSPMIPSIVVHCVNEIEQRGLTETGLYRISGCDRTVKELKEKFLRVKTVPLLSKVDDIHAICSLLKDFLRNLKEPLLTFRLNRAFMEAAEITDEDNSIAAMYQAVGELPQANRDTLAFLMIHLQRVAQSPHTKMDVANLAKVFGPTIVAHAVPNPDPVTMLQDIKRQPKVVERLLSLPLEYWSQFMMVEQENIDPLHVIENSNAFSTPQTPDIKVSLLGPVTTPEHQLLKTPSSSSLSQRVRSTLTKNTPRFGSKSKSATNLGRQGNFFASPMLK

[9] = target: T7, Histone-lysine N-methyltransferase NSD2 (Homo sapiens, UniProt O96028); format: biochemical
T7 sequence (O96028 whole entry): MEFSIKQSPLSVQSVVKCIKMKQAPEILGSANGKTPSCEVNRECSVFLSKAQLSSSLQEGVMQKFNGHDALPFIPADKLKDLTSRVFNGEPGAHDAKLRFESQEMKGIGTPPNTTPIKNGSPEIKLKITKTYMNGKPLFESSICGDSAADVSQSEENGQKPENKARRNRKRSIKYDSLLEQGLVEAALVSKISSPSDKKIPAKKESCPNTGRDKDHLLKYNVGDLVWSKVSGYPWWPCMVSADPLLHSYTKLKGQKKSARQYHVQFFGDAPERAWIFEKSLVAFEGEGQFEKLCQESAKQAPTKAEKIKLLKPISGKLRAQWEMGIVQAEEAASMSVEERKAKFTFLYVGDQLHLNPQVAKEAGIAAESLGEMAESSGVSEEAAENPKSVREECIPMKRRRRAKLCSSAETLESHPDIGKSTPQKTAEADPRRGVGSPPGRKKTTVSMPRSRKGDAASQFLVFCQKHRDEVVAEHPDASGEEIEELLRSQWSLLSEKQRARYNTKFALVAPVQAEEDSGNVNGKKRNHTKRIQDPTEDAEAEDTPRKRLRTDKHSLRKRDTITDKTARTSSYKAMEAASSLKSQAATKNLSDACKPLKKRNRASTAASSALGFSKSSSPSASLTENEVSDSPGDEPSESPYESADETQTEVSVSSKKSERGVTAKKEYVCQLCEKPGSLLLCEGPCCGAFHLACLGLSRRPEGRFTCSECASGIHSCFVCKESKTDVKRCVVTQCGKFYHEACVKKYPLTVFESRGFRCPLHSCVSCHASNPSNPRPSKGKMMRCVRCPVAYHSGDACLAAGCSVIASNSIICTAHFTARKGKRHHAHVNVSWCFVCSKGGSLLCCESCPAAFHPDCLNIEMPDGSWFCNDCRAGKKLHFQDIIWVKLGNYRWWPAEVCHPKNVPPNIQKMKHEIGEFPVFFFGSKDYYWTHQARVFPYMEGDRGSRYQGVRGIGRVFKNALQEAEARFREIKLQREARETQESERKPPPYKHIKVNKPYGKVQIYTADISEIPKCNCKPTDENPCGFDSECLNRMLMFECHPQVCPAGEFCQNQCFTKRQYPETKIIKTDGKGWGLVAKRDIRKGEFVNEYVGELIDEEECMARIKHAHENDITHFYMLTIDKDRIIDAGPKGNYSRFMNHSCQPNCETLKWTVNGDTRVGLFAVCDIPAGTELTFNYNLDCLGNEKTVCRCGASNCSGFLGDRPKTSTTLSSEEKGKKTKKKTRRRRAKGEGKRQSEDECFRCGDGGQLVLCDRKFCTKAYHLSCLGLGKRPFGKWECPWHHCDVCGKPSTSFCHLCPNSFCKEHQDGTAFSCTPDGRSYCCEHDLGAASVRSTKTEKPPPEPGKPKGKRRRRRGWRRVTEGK

Albumin = Albumin (Bos taurus, UniProt P02769); assay: Counterscreen for inhibitors of T-cell receptor (TCR)-CD3 interaction: Fluorescence-based biochemical high throughput dose response assay to identify inhibitors of T-cell receptor (TCR)-CD3 interaction using a TAMRA-labeled BSA probe.; format: functional
Chain of Albumin (P02769 whole entry): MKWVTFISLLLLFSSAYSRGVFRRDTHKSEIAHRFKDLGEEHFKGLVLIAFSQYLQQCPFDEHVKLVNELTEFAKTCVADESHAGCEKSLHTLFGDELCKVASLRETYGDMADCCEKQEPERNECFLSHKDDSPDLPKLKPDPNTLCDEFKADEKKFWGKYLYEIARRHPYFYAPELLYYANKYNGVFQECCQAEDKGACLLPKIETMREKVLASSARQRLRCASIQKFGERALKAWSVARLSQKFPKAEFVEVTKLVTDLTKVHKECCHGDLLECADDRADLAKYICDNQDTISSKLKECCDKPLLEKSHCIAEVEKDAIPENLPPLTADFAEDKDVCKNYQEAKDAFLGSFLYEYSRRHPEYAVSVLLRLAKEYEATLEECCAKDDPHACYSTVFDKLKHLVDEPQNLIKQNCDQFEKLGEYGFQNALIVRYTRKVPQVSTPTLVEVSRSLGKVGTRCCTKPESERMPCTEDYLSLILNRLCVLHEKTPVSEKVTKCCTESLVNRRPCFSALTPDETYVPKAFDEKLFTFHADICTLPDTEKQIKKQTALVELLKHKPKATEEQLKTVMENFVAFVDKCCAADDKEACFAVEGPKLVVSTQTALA

Chain of Luciferin 4-monooxygenase (P08659 whole entry): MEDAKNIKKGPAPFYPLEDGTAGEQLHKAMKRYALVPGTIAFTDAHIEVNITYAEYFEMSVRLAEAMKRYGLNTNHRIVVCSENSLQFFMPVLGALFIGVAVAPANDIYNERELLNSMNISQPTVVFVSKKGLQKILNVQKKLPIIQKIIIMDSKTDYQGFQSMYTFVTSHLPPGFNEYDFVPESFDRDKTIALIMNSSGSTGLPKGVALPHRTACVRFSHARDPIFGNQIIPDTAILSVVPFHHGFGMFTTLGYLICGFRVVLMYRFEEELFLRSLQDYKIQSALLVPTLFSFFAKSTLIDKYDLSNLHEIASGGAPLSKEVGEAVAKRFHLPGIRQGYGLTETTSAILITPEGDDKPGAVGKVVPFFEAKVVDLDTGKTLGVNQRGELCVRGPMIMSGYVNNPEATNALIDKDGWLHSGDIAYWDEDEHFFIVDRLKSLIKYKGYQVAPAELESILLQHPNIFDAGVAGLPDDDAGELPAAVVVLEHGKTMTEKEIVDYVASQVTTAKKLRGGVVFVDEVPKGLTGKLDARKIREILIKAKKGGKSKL

Compound: Cc1ccc(N=C2CCc3ccccc3N2)cc1
- EC50 [1]: 80.9 µM (active)

Compound: C=CCNc1nc(N2CCCC2)nc2ccccc12
- EC50 [2]: 1.19 µM (active)
- IC50 [3]: > 35 µM (not active)
- IC50 [4]: 11.8 µM (not active)

Compound: COC(=O)c1cc(C(=O)Nn2cnnc2)cc([N+](=O)[O-])c1
- IC50 (Procathepsin L): > 59.6 µM (not active)
- IC50 (Aspartyl aminopeptidase): 2.37 µM (active)

Compound: Cc1ccn2cc(C(=O)Nc3ccccc3N3CCOCC3)nc2c1
- EC50 [5]: > 50 µM (not active)

Compound: Cc1cc(C)c(C)c(S(=O)(=O)Nc2ccccc2C(=O)NCCCn2ccnc2)c1C
- IC50 [6]: > 100 µM (not active)
- EC50 [1]: 61.1 µM (active)
- EC50 (HT-1080): > 50 µM (not active)

Compound: COc1ccc(S(=O)(=O)N2CCCCCC2)cc1Br
- EC50 (Mucolipin-3): 2.67 µM (active)
- EC50 (Ion channel NompC): > 29.9 µM (not active)

Compound: CC(C)(C)[C@]1(O)CCN2C[C@H]3c4ccccc4CCc4cccc(c43)[C@@H]2C1 [BUTACLAMOL HYDROCHLORIDE]
- EC50 (Mucolipin-3): 3.98 µM (active)
- EC50 (Ion channel NompC): > 29.9 µM (not active)
- AC50 [7]: 6.31 µM (active)

Compound: COc1ccc2nc(C)cc(SCC(=O)N/N=C/c3ccc(O)c(O)c3)c2c1
- IC50 (Procathepsin L): > 59.6 µM (not active)
- IC50 [8]: 23.9 µM (active)
- IC50 (Aspartyl aminopeptidase): 2.48 µM (active)
- AC50 [9]: > 20 µM (inactive)
- IC50 (Albumin): > 94.1 µM (inactive)
